In assay [1] the test system is CHO. The experiment in a line: Inhibition of chinese hamster ovary cell proliferation, high polyamine transporter activity. Particulars: Cricetulus griseus. Format: functional, cell-based.
Assay [2] concerns L1210. Description: Inhibition of murine L1210 leukemia cell proliferation, high polyamine transporter activity. Format: functional, cell-based. Particulars: Mus musculus.
Assay [3] deals with CHO-MG. The experiment in a line: Inhibition of MGBG-resistant CHO-MG cell proliferation, no polyamine transporter activity. Particulars: Cricetulus griseus. It is filed as functional, cell-based.
For assay [4], the system named is CHO-MG. The experiment in a line: Relative inhibition of CHO-MG and chinese hamster ovary cell proliferation. It is filed as functional.
In assay [5] the test system is L1210. Description: Affinity for cellular polyamine transporter system as inhibition [14C]spermidine uptake in L1210 cells. It is filed as functional, cell-based, Mus musculus.

pIC50, pKi: −log10 of the molar value.

A word on the pIC50: it is the negative decadic logarithm of the IC50, by convention in mol/L. Low values mean a large IC50, high ones a small IC50. What is called pKi is the Ki on a negative log10 scale, so that one unit is a factor of ten. As to `NCCCCNCCCCN1CCCCCCCCCCCCCC1`, the pIC50 was 4.52 in assay [1], 4.73 in assay [2] and 4.55 in assay [3]. Also, in assay [4], the Ratio is recorded as 1. In assay [5], this compound had a pKi of 5.21.

Regarding `Cl.Cl.Cl.NCCCNCCCNCc1c2ccccc2cc2ccccc12`, the pIC50 was 5.72 in assay [1], 5.74 in assay [2] and 5.47 in assay [3]. Moreover, the Ratio in assay [4] is listed as 1.8. In assay [5], this compound showed a pKi of 4.48.

In turn, `Cl.Cl.Cl.NCCCCNCCCCNCc1c2ccccc2cc2ccccc12` had a pIC50 in assay [1] of 6.35. Also, in assay [4], the Ratio is listed as 148.

As for `CCN(CCCCNCCCCN)Cc1c2ccccc2cc2ccccc12.Cl.Cl.Cl`, the results for the pIC50 in assay [1], in assay [2] and in assay [3] were 4.65, 4.65 and 4.66, respectively. For the same compound, in assay [4], the Ratio is given as 1. The same compound gave a negative logarithm of the Ki (pKi) in assay [5] of 4.61.

As to `NCCCNCCCN1CCCCCCCCCCCCCC1`, the pIC50 in assay [1] was 4.98; in assay [2], 5.52; in assay [3] it was 5.00. For the same compound, the Ratio in assay [4] amounted to 1. Besides, the pKi in assay [5] is 5.00.
